From PubChem BioAssay AID2060626 (Molecular Pharmacology Branch, DTP, NCI, 2025)

System: 168753-222-R-J1-PDC complex spheroid viability
Test: Anticancer human tumor 168753-222-R-J1-PDC patient-derived bladder carcinoma cell line growth inhibition [CLK]
Settings: for IC50: curve of first compound; for viability, T/C: stronger effect = lower value
In short: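 Patient-derived tumor cells grown as complex spheroids with HUVEC endothelial cells and mesenchymal stem cells, treated with drug combinations. Concentrations descend in half-log steps from near clinical Cmax, or from 10 microM if Cmax unknown.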
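Note: viability measured after seven days of drug exposure.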
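Throughout, for viability, T/C: luminescence signal used as surrogate for viable cell amount; 100% = DMSO vehicle control wells.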

Q: With `NC(=O)C(=Cn1cnc(-c2cc(C(F)(F)F)cc(C(F)(F)F)c2)n1)c1cncnc1` + CN1CCN(c2cc(C(=O)Nc3cc4cc(-c5cnn(C)c5)ccc4cn3)ccn2)CC1 as the molecule, how does the IC50 (second compound 0.0316 µM) read?
A: Its IC50 is 56.2 nM.

Q: What about the IC50 (second compound 0.1 µM) of the same molecule?
A: Its IC50 is 13.6 nM.

Q: What about the IC50 (second compound 0.316 µM) of the same molecule?
A: Its IC50 is < 9.49 nM.

Q: What about the IC50 (second compound 1 µM) of the same molecule?
A: The IC50 was < 9.49 nM.

Q: What about the IC50 (second compound 3.16 µM) of the same molecule?
A: The IC50 was < 9.49 nM.

Q: And the IC50 (second compound 10 µM)?
A: The IC50 was < 9.49 nM.

Q: And the viability, T/C (second compound 0.0316 µM, first compound 0.00949 µM)?
A: The viability, T/C was 75.6%.

Q: And the viability, T/C (second compound 0.0316 µM, first compound 0.03 µM)?
A: Its viability, T/C is 72.3%.

Q: And the viability, T/C (second compound 0.0316 µM, first compound 0.0949 µM)?
A: The viability, T/C was 31.5%.

Q: What about the viability, T/C (second compound 0.0316 µM, first compound 0.3 µM) of the same molecule?
A: Its viability, T/C is 22.6%.

Q: What about the viability, T/C (second compound 0.0316 µM, first compound 0.949 µM) of the same molecule?
A: The viability, T/C was 15%.

Q: What about the viability, T/C (second compound 0.0316 µM, first compound 3 µM) of the same molecule?
A: Its viability, T/C is 12.9%.

Q: What about the viability, T/C (second compound 0.1 µM, first compound 0.00949 µM) of the same molecule?
A: The viability, T/C was 61.4%.

Q: And the viability, T/C (second compound 0.1 µM, first compound 0.03 µM)?
A: Its viability, T/C is 25.2%.

Q: And the viability, T/C (second compound 0.1 µM, first compound 0.0949 µM)?
A: The viability, T/C was 10.8%.

Q: And the viability, T/C (second compound 0.1 µM, first compound 0.3 µM)?
A: Its viability, T/C is 10.9%.

Q: And the viability, T/C (second compound 0.1 µM, first compound 0.949 µM)?
A: The viability, T/C was 5.67%.

Q: And the viability, T/C (second compound 0.1 µM, first compound 3 µM)?
A: Its viability, T/C is 3.14%.

Q: What about the viability, T/C (second compound 0.316 µM, first compound 0.00949 µM) of the same molecule?
A: The viability, T/C was 6.93%.

Q: And the viability, T/C (second compound 0.316 µM, first compound 0.03 µM)?
A: Its viability, T/C is 4.81%.

Q: What about the viability, T/C (second compound 0.316 µM, first compound 0.0949 µM) of the same molecule?
A: The viability, T/C was 0.76%.

Q: What about the viability, T/C (second compound 0.316 µM, first compound 0.3 µM) of the same molecule?
A: The viability, T/C was 0.08%.

Q: And the viability, T/C (second compound 0.316 µM, first compound 0.949 µM)?
A: Its viability, T/C is 0.11%.

Q: What about the viability, T/C (second compound 0.316 µM, first compound 3 µM) of the same molecule?
A: The viability, T/C was 0.75%.

Q: And the viability, T/C (second compound 1 µM, first compound 0.00949 µM)?
A: Its viability, T/C is 0.09%.

Q: And the viability, T/C (second compound 1 µM, first compound 0.03 µM)?
A: The viability, T/C was 0.15%.

Q: What about the viability, T/C (second compound 1 µM, first compound 0.0949 µM) of the same molecule?
A: The viability, T/C was 0.1%.

Q: What about the viability, T/C (second compound 1 µM, first compound 0.3 µM) of the same molecule?
A: Its viability, T/C is 0.05%.

Q: And the viability, T/C (second compound 1 µM, first compound 0.949 µM)?
A: Its viability, T/C is 0.06%.

Q: What about the viability, T/C (second compound 1 µM, first compound 3 µM) of the same molecule?
A: The viability, T/C was 0.72%.

Q: And the viability, T/C (second compound 3.16 µM, first compound 0.00949 µM)?
A: Its viability, T/C is 0.06%.

Q: And the viability, T/C (second compound 3.16 µM, first compound 0.03 µM)?
A: The viability, T/C was 0.22%.

Q: What about the viability, T/C (second compound 3.16 µM, first compound 0.0949 µM) of the same molecule?
A: The viability, T/C was 0.75%.

Q: And the viability, T/C (second compound 3.16 µM, first compound 0.3 µM)?
A: Its viability, T/C is 0.08%.

Q: What about the viability, T/C (second compound 3.16 µM, first compound 0.949 µM) of the same molecule?
A: Its viability, T/C is 0.69%.

Q: And the viability, T/C (second compound 3.16 µM, first compound 3 µM)?
A: Its viability, T/C is 0.12%.

Q: And the viability, T/C (second compound 10 µM, first compound 0.00949 µM)?
A: Its viability, T/C is 0.87%.

Q: What about the viability, T/C (second compound 10 µM, first compound 0.03 µM) of the same molecule?
A: Its viability, T/C is 0.14%.

Q: What about the viability, T/C (second compound 10 µM, first compound 0.0949 µM) of the same molecule?
A: Its viability, T/C is 0.3%.

Q: What about the viability, T/C (second compound 10 µM, first compound 0.3 µM) of the same molecule?
A: Its viability, T/C is 0.13%.

Q: And the viability, T/C (second compound 10 µM, first compound 0.949 µM)?
A: Its viability, T/C is 0.22%.

Q: What about the viability, T/C (second compound 10 µM, first compound 3 µM) of the same molecule?
A: The viability, T/C was 0.56%.

Q: What does the source list for `Nc1ccccc1NC(=O)c1ccc(CNC(=O)OCc2cccnc2)cc1` + CN1CCN(c2cc(C(=O)Nc3cc4cc(-c5cnn(C)c5)ccc4cn3)ccn2)CC1?
A: IC50 (second compound 0.0316 µM): 554 nM; IC50 (second compound 0.1 µM): < 31.6 nM; IC50 (second compound 0.316 µM): < 31.6 nM; IC50 (second compound 1 µM): < 31.6 nM; IC50 (second compound 3.16 µM): < 31.6 nM; IC50 (second compound 10 µM): < 31.6 nM; viability, T/C (second compound 0.0316 µM, first compound 0.0316 µM): 96.5%; viability, T/C (second compound 0.0316 µM, first compound 0.1 µM): 58.7%; viability, T/C (second compound 0.0316 µM, first compound 0.316 µM): 54.6%; viability, T/C (second compound 0.0316 µM, first compound 1 µM): 54%; viability, T/C (second compound 0.0316 µM, first compound 3.16 µM): 24.3%; viability, T/C (second compound 0.0316 µM, first compound 10 µM): 7.33%; viability, T/C (second compound 0.1 µM, first compound 0.0316 µM): 50%; viability, T/C (second compound 0.1 µM, first compound 0.1 µM): 41.3%; viability, T/C (second compound 0.1 µM, first compound 0.316 µM): 38.2%; viability, T/C (second compound 0.1 µM, first compound 1 µM): 43.9%; viability, T/C (second compound 0.1 µM, first compound 3.16 µM): 22.6%; viability, T/C (second compound 0.1 µM, first compound 10 µM): 0.13%; viability, T/C (second compound 0.316 µM, first compound 0.0316 µM): 9.09%; viability, T/C (second compound 0.316 µM, first compound 0.1 µM): 8.55%; viability, T/C (second compound 0.316 µM, first compound 0.316 µM): 7.31%; viability, T/C (second compound 0.316 µM, first compound 1 µM): 7.09%; viability, T/C (second compound 0.316 µM, first compound 3.16 µM): 0.22%; viability, T/C (second compound 0.316 µM, first compound 10 µM): 0.07%; viability, T/C (second compound 1 µM, first compound 0.0316 µM): 0.13%; viability, T/C (second compound 1 µM, first compound 0.1 µM): 0.23%; viability, T/C (second compound 1 µM, first compound 0.316 µM): 0.08%; viability, T/C (second compound 1 µM, first compound 1 µM): 0.05%; viability, T/C (second compound 1 µM, first compound 3.16 µM): 0.16%; viability, T/C (second compound 1 µM, first compound 10 µM): 0.89%; viability, T/C (second compound 3.16 µM, first compound 0.0316 µM): 0.79%; viability, T/C (second compound 3.16 µM, first compound 0.1 µM): 0.08%; viability, T/C (second compound 3.16 µM, first compound 0.316 µM): 0.09%; viability, T/C (second compound 3.16 µM, first compound 1 µM): 0.06%; viability, T/C (second compound 3.16 µM, first compound 3.16 µM): 0.71%; viability, T/C (second compound 3.16 µM, first compound 10 µM): 0.95%; viability, T/C (second compound 10 µM, first compound 0.0316 µM): 0.06%; viability, T/C (second compound 10 µM, first compound 0.1 µM): 0.23%; viability, T/C (second compound 10 µM, first compound 0.316 µM): 0.32%; viability, T/C (second compound 10 µM, first compound 1 µM): 0.1%; viability, T/C (second compound 10 µM, first compound 3.16 µM): 0.24%; viability, T/C (second compound 10 µM, first compound 10 µM): 1.08%
